Reference: publication PMC11345830, “Exploration of Hydrazide-Based HDAC8 PROTACs for the Treatment of Hematological Malignancies and Solid Tumors” (Journal of Medicinal Chemistry, 2024)

Target: T1, HDAC7 (Homo sapiens, UniProt Q8WUI4)
T1 construct: endogenous in cells; host or cells: Jurkat
T1 sequence (Q8WUI4 1-952): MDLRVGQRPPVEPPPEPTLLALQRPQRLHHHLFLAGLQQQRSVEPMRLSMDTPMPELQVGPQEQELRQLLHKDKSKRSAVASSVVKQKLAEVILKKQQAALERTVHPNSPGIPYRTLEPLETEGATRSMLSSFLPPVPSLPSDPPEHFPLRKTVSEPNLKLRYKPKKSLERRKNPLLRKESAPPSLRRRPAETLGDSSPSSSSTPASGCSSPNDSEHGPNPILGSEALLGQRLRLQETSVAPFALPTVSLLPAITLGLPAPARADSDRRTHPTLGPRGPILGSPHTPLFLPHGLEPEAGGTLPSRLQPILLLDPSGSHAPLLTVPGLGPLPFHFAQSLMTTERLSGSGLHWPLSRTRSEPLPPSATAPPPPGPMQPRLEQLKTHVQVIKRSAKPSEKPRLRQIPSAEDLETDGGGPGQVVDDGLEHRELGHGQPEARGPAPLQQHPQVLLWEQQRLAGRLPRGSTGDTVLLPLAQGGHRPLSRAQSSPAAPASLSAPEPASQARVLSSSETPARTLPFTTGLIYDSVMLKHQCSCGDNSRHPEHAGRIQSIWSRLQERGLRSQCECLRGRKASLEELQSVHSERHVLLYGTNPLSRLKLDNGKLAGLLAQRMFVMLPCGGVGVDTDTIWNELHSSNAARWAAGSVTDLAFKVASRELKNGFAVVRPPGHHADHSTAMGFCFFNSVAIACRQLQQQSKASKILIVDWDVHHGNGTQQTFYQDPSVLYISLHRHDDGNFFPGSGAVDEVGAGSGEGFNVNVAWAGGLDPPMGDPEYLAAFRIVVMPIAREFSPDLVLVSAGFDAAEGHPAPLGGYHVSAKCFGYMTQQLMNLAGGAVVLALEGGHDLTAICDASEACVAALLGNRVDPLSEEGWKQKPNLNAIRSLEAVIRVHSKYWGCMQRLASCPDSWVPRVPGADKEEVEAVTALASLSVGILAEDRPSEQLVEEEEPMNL
Experiment: HDAC7 level in Jurkat cells, Western blot
Type: cell-based
Conditions: 6 h

SMILES: CCCCCCNNC(=O)c1ccc(CNC(=O)CN2CCC(c3ccc(NC4CCC(=O)NC4=O)cc3)CC2)cc1 (stereo not shown) [Z16, 2-(4-(4-((2,6-Dioxopiperidin-3-yl)amino)phenyl)piperidin-1-yl)-N-(4-(2-hexylhydrazine-1-carbonyl)benzyl)acetamide]
- HDAC7 degradation (in words): no obvious
